T1: Thymidine phosphorylase (Homo sapiens, UniProt P19971)
T1 sequence (P19971 whole entry): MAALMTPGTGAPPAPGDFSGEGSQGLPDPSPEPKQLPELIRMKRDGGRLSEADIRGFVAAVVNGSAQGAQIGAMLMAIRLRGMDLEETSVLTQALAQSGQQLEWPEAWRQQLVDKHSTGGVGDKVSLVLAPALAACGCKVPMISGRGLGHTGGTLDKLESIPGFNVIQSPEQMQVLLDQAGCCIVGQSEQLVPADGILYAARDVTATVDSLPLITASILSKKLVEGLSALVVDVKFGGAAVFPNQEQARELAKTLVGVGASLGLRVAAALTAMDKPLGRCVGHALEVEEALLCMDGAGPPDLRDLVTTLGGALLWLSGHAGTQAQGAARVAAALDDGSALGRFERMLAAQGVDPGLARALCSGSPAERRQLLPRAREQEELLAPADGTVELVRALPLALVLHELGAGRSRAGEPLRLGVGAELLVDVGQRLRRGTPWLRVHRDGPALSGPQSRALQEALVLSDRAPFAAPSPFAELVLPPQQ


Experiments:
Thymidine phosphorylase = target: T1, Thymidine phosphorylase
[1] = Stability in water assessed as parent pure compound remaining at 1 mg measured within 10 days by HPLC analysis (reference value: 95%); format: physicochemical; settings: read-out: Stability
NIH3T3 [2] = assay: Cytotoxicity against mouse 3T3 cells at 50 uM by SRB assay; format: cell-based; settings: nih3t3, 50 µM
[3] = Stability in bovine serum assessed as parent pure compound remaining at 1 mg measured within 10 days by HPLC analysis; format: ADME, cell-free, Bos taurus; settings: cattle, 240 h
NIH3T3 [4] = assay: Cytotoxicity against mouse 3T3 cells by SRB assay; format: functional, cell-based
[5] = substrate: Cc1cc(=O)[nH]c(=O)n1/C(=N\O)c1ccc(Cl)c(Cl)c1; settings: Homo sapiens

Molecule	IC50 (Thymidine phosphorylase) [µM]	other results
Cc1cccc(/C(=N/O)n2c(C)cc(=O)[nH]c2=O)c1	15.9	
Cc1cc(=O)[nH]c(=O)n1/C(=N\O)c1ccc(Cl)c(Cl)c1	0.12	remaining at 240 h [1]: 87%; Activity (NIH3T3 [2]): Non-Toxic; Stability [3]: Stable
CCc1ccc(/C(=N\O)n2cc(I)c(=O)[nH]c2=O)cc1	10.7	
Cc1ccc(/C(=N\O)n2cc(I)c(=O)[nH]c2=O)cc1	22.5	
C[C@@H]1C[C@@H]([C@H](O)CC2CC(=O)NC(=O)C2)C(=O)[C@@H](C)C1 [CYCLOHEXIMIDE]		IC50 (NIH3T3 [4]): 0.3 µM
COc1ccc(/C(=N\O)n2cc(I)c(=O)[nH]c2=O)cc1	25.2	
CO/N=C(\c1ccccc1)n1c(C)cc(=O)[nH]c1=O	85.6	
O=c1[nH]c(=O)n(/C(=N/O)c2ccc(Cl)cc2)cc1I	15.6	
COc1cccc(/C(=N/O)n2c(C)cc(=O)[nH]c2=O)c1	25.1	
Cc1cc(=O)[nH]c(=O)n1C(=O)c1ccccc1	92.4	
O=c1[nH]c(=O)n(/C(=N/O)c2ccccc2)cc1I	37.3	
Cc1cc(=O)[nH]c(=O)n1/C(=N\O)c1cccs1	39.9	
COc1cccc(/C(=N\O)n2cc(I)c(=O)[nH]c2=O)c1	33.4	
O=c1[nH]c(=O)n(/C(=N/O)c2ccc(F)cc2)cc1I	41.3	
O=c1[nH]c(=O)n(/C(=N/O)c2ccccc2F)cc1I	53.7	
Thymidine phosphorylase (Homo sapiens), P19971 (protein) MAALMTPGTGAPPAPGDFSGEGSQGLPDPSPEPKQLPELIRMKRDGGRLSEADIRGFVAAVVNGSAQGAQIGAMLMAIRLRGMDLEETSVLTQALAQSGQQLEWPEAWRQQLVDKHSTGGVGDKVSLVLAPALAACGCKVPMISGRGLGHTGGTLDKLESIPGFNVIQSPEQMQVLLDQAGCCIVGQSEQLVPADGILYAARDVTATVDSLPLITASILSKKLVEGLSALVVDVKFGGAAVFPNQEQARELAKTLVGVGASLGLRVAAALTAMDKPLGRCVGHALEVEEALLCMDGAGPPDLRDLVTTLGGALLWLSGHAGTQAQGAARVAAALDDGSALGRFERMLAAQGVDPGLARALCSGSPAERRQLLPRAREQEELLAPADGTVELVRALPLALVLHELGAGRSRAGEPLRLGVGAELLVDVGQRLRRGTPWLRVHRDGPALSGPQSRALQEALVLSDRAPFAAPSPFAELVLPPQQ		Km [5]: 2000 µM

The next lines start with results.

IC50 (Thymidine phosphorylase) [µM]	Molecule	other results
16.5	COc1ccc(/C(=N/O)n2c(C)cc(=O)[nH]c2=O)cc1	
41.2	Cc1cc(=O)[nH]c(=O)n1/C(=N\O)c1cccc(F)c1	
7.2	Cc1ccc(/C(=N/O)n2c(C)cc(=O)[nH]c2=O)cc1	Activity (NIH3T3 [2]): Non-Toxic
49.3	Cc1cc(=O)[nH]c(=O)n1/C(=N\O)c1ccccc1F	
2.7	Cc1cc(=O)[nH]c(=O)n1/C(=N\O)c1ccc(Br)cc1	
3.4	CCc1ccc(/C(=N/O)n2c(C)cc(=O)[nH]c2=O)cc1	Activity (NIH3T3 [2]): Non-Toxic
21.4	Cc1cc(=O)[nH]c(=O)n1/C(=N\O)c1ccccc1	
1.4	Cc1cc(=O)[nH]c(=O)n1/C(=N\O)c1ccc(Cl)cc1	Activity (NIH3T3 [2]): Non-Toxic
44.1	Cc1cc(=O)[nH]c(=O)n1/C(=N\O)c1ccc(F)cc1	
